IC50 data for twelve compounds are collected here from US7626031B2, “Substituted 3-(diarylmethylene)indolin-2-ones and methods of their use” (Symphony Evolution, Inc., priority 2002, dated 2009).

Assay [1] deals with IRK (Homo sapiens, UniProt P06213). In words: Kinase assay, IRK. Type of assay: biochemical. How it is done:
(§1) Kinase activity and compound inhibition are investigated using one or more assay formats. The ATP concentrations for each assay are selected to be close to the Michaelis-Menten constant (KM) for each individual kinase. Dose-response experiments are performed at 10 different inhibitor concentrations in a 384-well plate format. […] Exemplary kinase assays are described below. KDR Assay

Assay [2] concerns the target EphA2 (Homo sapiens, UniProt P29317). In words: Kinase assay, EphA2 (33P-ATP incorporation or luciferase-coupled ATP consumption). Type of assay: biochemical. The gist of the method:
(§2)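 Two formats used: luciferase/luciferin chemiluminescence of ATP consumed with pEY, or radiometric 33P transfer to plate-bound MBP or pEY read by scintillation.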

Assay [3] addresses FGFR1 (Homo sapiens, UniProt P11362). In words: Kinase assay, FGFR1 (33P-ATP incorporation or luciferase-coupled ATP consumption). The format is biochemical. Summed up: as §2
The target in assay [4] is c-Kit kinase (Homo sapiens, UniProt P10721). In words: c-Kit AlphaScreen kinase assay. Type of assay: biochemical. How it is done: as §1
c-Kit biochemical activity was assessed using AlphaScreen™ (Perkin Elmer) technology, described above. Test compounds, ATP, biotinylated poly(Glu, Tyr) and c-Kit kinase were combined in a volume of 20 μL in a 384-well white, medium binding microtiter plate (Greiner). Reaction mixtures were incubated for 1 hr at ambient temperature. Reactions were quenched by addition of 10 uL of […] AlphaScreen bead suspension containing 75 mM Hepes, pH 7.4, 300 mM NaCl, 120 mM EDTA, 0.3% BSA and 0.03% Tween-20. After 16 hr incubation at ambient temperature plates were read using an AlphaQuest reader (Perkin Elmer).
For orientation: Alpha assays give light when donor and acceptor beads are brought close together.

Assay [5] addresses T1, KDR (baculovirus expressed human KDR kinase domain D807-V1356) (Homo sapiens, UniProt P35968).
T1 construct: human KDR kinase domain D807-V1356; host or cells: baculovirus expression system
Nature of the assay: biochemical. The gist of the method: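 Baculovirus human KDR kinase domain (D807–V1356) with ATP near its KM; 10-point dose-response, 4 h at ambient temperature. Activity taken as percent ATP remaining, detected by luciferase–luciferin chemiluminescence.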

In assay [6] the target is Flt-1 (Homo sapiens, UniProt P17948). In words: Kinase assay, Flt-1 (33P-ATP incorporation or luciferase-coupled ATP consumption). The format is biochemical. The following applies: read-out: Flt1 IC50. The gist of the method:
as §2

The target in assay [7] is PDGFR alpha (Homo sapiens, UniProt P16234). Nature of the assay: Kinase assay, PDGFR alpha (33P-ATP incorporation or luciferase-coupled ATP consumption). The format is biochemical. As to conditions: read-out: PDGF-R-A IC50. The gist of the method: as §2
In assay [8] the target is EGFR (Homo sapiens, UniProt P00533). In words: Kinase assay, EGFR (33P-ATP incorporation or luciferase-coupled ATP consumption). The format is biochemical. The gist of the method: as §2
Assay [9] concerns the target Fyn (Homo sapiens, UniProt P06241). Nature of the assay: Kinase assay, Fyn. The format is biochemical. How it is done:
as §1

In assay [10] the target is ALK (Homo sapiens, UniProt Q9UM73). In words: Kinase assay, ALK (33P-ATP incorporation or luciferase-coupled ATP consumption). Type of assay: biochemical. How it is done:
Kinase assays were performed by measurement of incorporation of γ-^33P ATP into immobilized myelin basic protein (MBP). […] Plates were washed 3× with 100 μl TBS. […] Compound dilutions were performed in DMSO and added to assay wells to a final DMSO concentration of 1%. Each data point was measured in duplicate, and at least two duplicate assays were performed for each individual compound determination. Enzyme was added to final concentrations of 10 nM or 20 nM, for example. A mixture of unlabeled ATP and γ-^33P ATP was added to start the reaction (2×10^6 cpm of γ-^33P ATP per well (3000 Ci/mmole) and either 10 μM or 30 μM unlabeled ATP, typically. The reactions were carried out for 1 hour at room temperature with shaking. Plates were washed 7× with TBS, followed by the addition of 50 μl/well scintillation fluid (Wallac). Plates were read using a Wallac Trilux counter. This is only one format of such assays, various other formats are possible, as known to one of ordinary skill in the art.
Tyrosine kinase activity is determined by 1) measurement of kinase-dependent ATP consumption by in the presence of a generic substrate such as, polyglutamic acid, tyrosine, 4:1 (pEY), by luciferase/luciferin-mediated chemiluminescence or; 2) incorporation of radioactive phosphate derived from ^33P-ATP into a generic substrate which has been adsorbed onto the well surface of polystyrene microtiter plates. Phosphorylated substrate products are quantified by scintillation spectrometry.
as §1

T1 sequence (P35968 807-1356): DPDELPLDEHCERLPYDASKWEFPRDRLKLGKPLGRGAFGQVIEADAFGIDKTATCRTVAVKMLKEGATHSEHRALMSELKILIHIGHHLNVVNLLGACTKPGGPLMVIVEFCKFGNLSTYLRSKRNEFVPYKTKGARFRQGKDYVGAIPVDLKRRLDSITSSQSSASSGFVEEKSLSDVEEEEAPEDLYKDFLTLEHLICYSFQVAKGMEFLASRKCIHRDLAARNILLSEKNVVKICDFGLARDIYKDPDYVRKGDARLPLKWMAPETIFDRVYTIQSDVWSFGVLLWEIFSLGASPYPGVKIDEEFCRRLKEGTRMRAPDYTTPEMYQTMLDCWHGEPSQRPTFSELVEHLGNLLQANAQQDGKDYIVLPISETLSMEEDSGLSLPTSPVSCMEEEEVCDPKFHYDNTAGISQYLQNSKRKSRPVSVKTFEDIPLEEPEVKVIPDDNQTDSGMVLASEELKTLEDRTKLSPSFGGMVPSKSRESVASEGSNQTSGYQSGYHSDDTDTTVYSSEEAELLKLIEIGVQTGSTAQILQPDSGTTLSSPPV
c-Kit kinase, sequence (P10721 26-976): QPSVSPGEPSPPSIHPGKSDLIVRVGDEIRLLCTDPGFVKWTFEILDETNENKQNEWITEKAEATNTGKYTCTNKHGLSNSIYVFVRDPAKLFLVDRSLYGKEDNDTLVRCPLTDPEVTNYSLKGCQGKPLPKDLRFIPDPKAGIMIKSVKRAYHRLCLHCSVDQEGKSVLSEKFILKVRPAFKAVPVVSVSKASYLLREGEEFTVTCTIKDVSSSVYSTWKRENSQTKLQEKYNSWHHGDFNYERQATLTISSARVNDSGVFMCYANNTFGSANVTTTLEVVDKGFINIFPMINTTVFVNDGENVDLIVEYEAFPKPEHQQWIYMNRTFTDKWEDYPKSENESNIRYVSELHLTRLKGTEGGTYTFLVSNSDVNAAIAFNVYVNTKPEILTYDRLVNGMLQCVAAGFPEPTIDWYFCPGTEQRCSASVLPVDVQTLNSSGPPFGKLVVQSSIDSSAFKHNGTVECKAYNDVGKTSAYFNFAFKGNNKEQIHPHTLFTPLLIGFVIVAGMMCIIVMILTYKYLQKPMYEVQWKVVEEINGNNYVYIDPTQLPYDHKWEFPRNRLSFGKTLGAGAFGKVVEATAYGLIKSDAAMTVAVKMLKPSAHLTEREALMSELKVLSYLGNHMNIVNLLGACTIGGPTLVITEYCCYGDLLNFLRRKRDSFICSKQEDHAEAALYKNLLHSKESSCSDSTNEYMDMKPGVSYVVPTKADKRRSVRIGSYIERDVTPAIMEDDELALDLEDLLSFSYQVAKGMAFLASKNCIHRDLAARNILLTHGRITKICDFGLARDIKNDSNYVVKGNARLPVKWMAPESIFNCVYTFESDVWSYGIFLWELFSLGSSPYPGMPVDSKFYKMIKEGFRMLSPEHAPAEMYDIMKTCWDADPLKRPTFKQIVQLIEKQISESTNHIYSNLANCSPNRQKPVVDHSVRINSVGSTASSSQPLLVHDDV
IRK, sequence (P06213 28-1382): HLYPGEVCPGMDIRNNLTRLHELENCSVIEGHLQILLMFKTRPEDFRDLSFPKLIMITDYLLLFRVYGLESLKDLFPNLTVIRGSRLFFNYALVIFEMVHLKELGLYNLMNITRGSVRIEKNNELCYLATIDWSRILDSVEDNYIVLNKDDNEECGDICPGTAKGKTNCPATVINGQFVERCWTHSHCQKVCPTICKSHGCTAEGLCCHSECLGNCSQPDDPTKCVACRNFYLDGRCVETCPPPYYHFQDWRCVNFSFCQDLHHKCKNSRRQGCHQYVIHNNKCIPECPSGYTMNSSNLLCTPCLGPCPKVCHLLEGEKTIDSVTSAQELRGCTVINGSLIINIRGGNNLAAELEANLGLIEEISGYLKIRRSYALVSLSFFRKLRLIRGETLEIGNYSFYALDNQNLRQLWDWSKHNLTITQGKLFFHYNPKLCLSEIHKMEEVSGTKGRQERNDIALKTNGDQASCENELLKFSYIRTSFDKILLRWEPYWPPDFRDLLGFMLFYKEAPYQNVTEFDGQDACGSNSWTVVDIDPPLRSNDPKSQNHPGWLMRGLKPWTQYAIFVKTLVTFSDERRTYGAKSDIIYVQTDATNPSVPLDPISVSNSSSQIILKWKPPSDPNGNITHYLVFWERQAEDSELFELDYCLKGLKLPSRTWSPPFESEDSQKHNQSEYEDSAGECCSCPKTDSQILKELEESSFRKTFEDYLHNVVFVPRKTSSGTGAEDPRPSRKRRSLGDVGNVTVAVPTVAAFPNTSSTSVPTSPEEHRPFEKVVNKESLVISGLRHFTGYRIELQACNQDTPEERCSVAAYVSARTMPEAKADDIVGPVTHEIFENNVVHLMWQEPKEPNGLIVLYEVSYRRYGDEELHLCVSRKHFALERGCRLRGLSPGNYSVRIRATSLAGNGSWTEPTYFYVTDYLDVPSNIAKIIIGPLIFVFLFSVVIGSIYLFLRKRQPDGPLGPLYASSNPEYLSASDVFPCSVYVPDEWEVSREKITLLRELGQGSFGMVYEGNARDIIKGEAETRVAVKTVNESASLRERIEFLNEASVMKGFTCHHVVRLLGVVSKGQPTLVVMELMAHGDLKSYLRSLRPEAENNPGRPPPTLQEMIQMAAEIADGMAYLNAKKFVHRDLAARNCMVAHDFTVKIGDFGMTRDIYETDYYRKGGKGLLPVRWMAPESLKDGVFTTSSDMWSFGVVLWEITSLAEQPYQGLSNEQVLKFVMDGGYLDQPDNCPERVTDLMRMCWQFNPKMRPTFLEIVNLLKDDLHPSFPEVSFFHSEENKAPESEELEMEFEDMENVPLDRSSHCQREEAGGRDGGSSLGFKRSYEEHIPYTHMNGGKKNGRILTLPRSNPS
ALK, sequence (Q9UM73 19-1620, species assumed): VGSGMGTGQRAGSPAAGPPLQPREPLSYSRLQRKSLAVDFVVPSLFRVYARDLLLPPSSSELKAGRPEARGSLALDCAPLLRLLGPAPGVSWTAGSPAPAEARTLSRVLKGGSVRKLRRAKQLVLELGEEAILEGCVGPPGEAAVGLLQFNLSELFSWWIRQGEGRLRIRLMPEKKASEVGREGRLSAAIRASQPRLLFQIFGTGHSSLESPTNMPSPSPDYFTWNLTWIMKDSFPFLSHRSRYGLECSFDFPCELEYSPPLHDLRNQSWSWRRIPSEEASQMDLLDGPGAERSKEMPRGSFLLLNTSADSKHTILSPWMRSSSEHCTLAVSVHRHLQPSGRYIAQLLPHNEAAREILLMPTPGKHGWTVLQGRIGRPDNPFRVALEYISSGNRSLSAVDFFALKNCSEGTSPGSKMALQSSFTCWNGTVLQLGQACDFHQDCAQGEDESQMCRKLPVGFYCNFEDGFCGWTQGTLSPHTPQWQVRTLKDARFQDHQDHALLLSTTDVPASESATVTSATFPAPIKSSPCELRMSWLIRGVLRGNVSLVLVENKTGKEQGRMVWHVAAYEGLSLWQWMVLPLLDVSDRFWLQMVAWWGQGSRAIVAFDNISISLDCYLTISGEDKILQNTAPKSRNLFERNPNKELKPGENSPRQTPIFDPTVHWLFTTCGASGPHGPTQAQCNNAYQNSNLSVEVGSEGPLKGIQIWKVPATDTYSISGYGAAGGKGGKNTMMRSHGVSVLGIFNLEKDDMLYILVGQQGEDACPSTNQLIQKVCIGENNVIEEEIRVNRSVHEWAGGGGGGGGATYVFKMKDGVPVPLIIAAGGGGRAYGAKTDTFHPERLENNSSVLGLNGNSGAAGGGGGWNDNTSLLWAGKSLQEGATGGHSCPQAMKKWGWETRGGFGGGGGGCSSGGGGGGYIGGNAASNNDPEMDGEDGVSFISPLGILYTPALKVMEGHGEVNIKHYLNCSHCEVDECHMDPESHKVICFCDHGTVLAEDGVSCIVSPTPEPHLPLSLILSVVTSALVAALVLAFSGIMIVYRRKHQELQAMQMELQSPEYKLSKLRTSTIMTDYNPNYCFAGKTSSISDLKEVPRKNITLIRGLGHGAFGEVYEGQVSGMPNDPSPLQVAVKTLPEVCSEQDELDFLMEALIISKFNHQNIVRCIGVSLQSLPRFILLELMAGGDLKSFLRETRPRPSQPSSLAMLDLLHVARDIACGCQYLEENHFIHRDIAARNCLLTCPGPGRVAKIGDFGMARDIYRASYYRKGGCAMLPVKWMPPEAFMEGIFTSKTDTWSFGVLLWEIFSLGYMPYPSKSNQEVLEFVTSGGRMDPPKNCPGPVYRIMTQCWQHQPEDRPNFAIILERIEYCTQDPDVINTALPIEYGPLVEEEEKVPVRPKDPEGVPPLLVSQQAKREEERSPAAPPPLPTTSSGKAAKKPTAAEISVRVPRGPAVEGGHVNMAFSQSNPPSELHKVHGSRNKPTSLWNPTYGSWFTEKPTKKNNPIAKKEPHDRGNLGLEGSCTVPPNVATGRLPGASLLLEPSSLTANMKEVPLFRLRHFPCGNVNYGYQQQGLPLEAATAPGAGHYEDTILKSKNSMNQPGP
Fyn, sequence (P06241 whole entry, species assumed): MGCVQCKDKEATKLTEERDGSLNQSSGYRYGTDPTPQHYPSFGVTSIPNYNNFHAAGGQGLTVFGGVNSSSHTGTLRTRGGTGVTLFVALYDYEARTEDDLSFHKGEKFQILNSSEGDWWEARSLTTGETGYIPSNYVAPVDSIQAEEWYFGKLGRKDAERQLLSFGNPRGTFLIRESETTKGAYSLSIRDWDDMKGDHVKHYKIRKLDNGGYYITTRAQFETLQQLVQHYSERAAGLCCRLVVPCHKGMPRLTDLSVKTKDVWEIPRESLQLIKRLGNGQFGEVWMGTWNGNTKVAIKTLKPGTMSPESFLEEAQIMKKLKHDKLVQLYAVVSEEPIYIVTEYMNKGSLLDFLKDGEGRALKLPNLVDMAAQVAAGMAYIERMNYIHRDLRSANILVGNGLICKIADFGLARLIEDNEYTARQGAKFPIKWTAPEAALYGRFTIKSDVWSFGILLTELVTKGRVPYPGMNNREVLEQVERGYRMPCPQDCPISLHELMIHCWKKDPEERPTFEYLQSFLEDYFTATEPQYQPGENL

As a reminder, the IC50 is the concentration that inhibits the measured activity by half. Take `COCCN1CCC(Nc2ccc3c(c2)/C(=C(\c2cccc(F)c2)c2ncc[nH]2)C(=O)N3)CC1` [Entry 41, (3Z)-3-[(3-fluorophenyl)(1H-imidazol-2-yl)methylidene]-5-({1-[2-(methyloxy)ethyl]piperidin-4-yl}amino)-1,3-dihydro-2H-indol-2-one]: the IC50 was 500 to 5000 nM in assay [1]; 500 to 5000 nM in assay [2]; under 50 nM in assay [3]; 50 to 500 nM in assay [4]; under 50 nM in assay [5]; 50 to 500 nM in assay [6]. For the same compound, the IC50 was under 50 nM in [7], 50 to 500 nM in assay [8] and under 50 nM in assay [9].
Take `COCCN1CCC(Nc2ccc3c(c2)/C(=C(\c2ccc(C)c(F)c2)c2nc(C)c[nH]2)C(=O)N3)CC1` [Entry 97]: the IC50 in assay [1] is 500 to 5000 nM; in assay [2] it was 500 to 5000 nM; in [10], under 50 nM; in assay [3], under 50 nM; in assay [5], under 50 nM; in assay [8], under 50 nM. This compound also yielded an IC50 in assay [9] of under 50 nM.
Turning to `CCN1CCC(Nc2ccc3c(c2)/C(=C(\c2ccc(C)c(F)c2)c2nc(C)c[nH]2)C(=O)N3)CC1` [Entry 67, (3Z)-5-[(1-ethylpiperidin-4-yl)amino]-3-[(3-fluoro-4-methylphenyl) (4-methyl-1H-imidazol-2-yl)methylidene]-1,3-dihydro-2H-indol-2-one], the IC50 was 500 to 5000 nM in assay [1]; 50 to 500 nM in assay [2]; under 50 nM in assay [10]; under 50 nM in [3]; under 50 nM in assay [5]; under 50 nM in [7]. Besides, the IC50 in [8] and in assay [9] was under 50 nM throughout.
With `CCN1CCC(Nc2ccc3c(c2)/C(=C(\c2ccc(C)cc2)c2nc(C)c[nH]2)C(=O)N3)CC1` [Entry 64, (3Z)-5-[(1-ethylpiperidin-4-yl)amino]-3-[(4-methyl-1H-imidazol-2-yl)(4-methylphenyl)methylidene] 1,3-dihydro-2H-indol-2-one], the IC50 in assay [1] was 500 to 5000 nM; in assay [2], 50 to 500 nM; in assay [10], under 50 nM; in assay [3] it was under 50 nM; in assay [5], under 50 nM; in assay [7], under 50 nM. Besides, the IC50 is 50 to 500 nM in assay [8] and under 50 nM in [9].
As to `CCN1CCC(Nc2ccc3c(c2)/C(=C(\c2ccc(C)c(F)c2)c2ncc[nH]2)C(=O)N3)CC1` [Entry 57, (3Z)-5-[(1-ethylpiperidin-4-yl)amino]-3-[(3-fluoro-4-methylphenyl)(1H-imidazol-2-yl)methylidene]-1,3-dihydro-2H-indol-2-one], the 50% inhibitory concentration (IC50) in assay [1] was 500 to 5000 nM; in assay [2] it was 50 to 500 nM; in assay [10] it was 50 to 500 nM; in [3], under 50 nM; in assay [5], under 50 nM; in [7], under 50 nM. In addition, in assay [9], the IC50 is under 50 nM.
In the case of `CCN1CCC(Nc2ccc3c(c2)/C(=C(\c2ccc(C)cc2)c2ncc[nH]2)C(=O)N3)CC1` [Entry 13, (3Z)-5-[(1-ethylpiperidin-4-yl)amino]-3-[1H-imidazol-2-yl(4-methylphenyl)methylidene]-1,3-dihydro-2H-indol-2-one], the IC50 in assay [1] is 500 to 5000 nM; in [2] it was 50 to 500 nM; in [3], under 50 nM; in assay [4], 50 to 500 nM; in assay [5] it was under 50 nM; in assay [6] it was 50 to 500 nM. In addition, the IC50 in assay [7] was under 50 nM; in assay [8] it was 50 to 500 nM; in assay [9], under 50 nM.
On to `CCN1CCC(Nc2ccc3c(c2)/C(=C(/c2nc(C)c[nH]2)c2ccc(Cl)cc2F)C(=O)N3)CC1` [Entry 118, (3Z)-3-[(4-chloro-2-fluorophenyl)(4-methyl-1H-imidazol-2-yl)methylidene]-5-[(1-ethylpiperidin-4-yl)amino]-1,3-dihydro-2H-indol-2-one], for which the IC50 was 50 to 500 nM in [1]; 500 to 5000 nM in assay [2]; under 50 nM in assay [10]; under 50 nM in assay [3]; under 50 nM in assay [4]; under 50 nM in assay [5]. The IC50 in assay [8] and in [9] was under 50 nM each time.
In the case of `CCN1CCC(Nc2ccc3c(c2)/C(=C(\c2ccc(F)c(Cl)c2)c2nc(C)c[nH]2)C(=O)N3)CC1` [Entry 105, (3Z)-3-[(3-chloro-4-fluorophenyl)(4-methyl-1H-imidazol-2-yl)methylidene]-5-[(1-ethylpiperidin-4-yl)amino]-1,3-dihydro-2H-indol-2-one], the IC50 in assay [1] is 500 to 5000 nM; in [2], 500 to 5000 nM; in assay [3], under 50 nM; in assay [4], 50 to 500 nM; in [5], under 50 nM; in [7], under 50 nM. The IC50 in [8] was 50 to 500 nM; in [9], under 50 nM.
As to `CCN1CCC(Nc2ccc3c(c2)/C(=C(/c2ncc[nH]2)c2ccc(C(F)(F)F)cc2F)C(=O)N3)CC1` [Entry 100, (3Z)-5-[(1-ethylpiperidin-4-yl)amino]-3-[[2-fluoro-4-(trifluoromethyl)phenyl] (1H-imidazol-2-yl)methylidene]-1,3-dihydro-2H-indol-2-one], the IC50 was 500 to 5000 nM in assay [1]; 500 to 5000 nM in assay [2]; under 50 nM in [3]; under 50 nM in assay [4]; under 50 nM in assay [5]; under 50 nM in assay [7]. Besides, the IC50 was 50 to 500 nM in assay [8] and under 50 nM in [9].
On to `CCN1CCC(Nc2ccc3c(c2)/C(=C(\c2ccc(C(F)(F)F)cc2)c2ncc[nH]2)C(=O)N3)CC1` [Entry 60, (3Z)-5-[(1-ethylpiperidin-4-yl)amino]-3-{1H-imidazol-2-yl[4-(trifluoromethyl)phenyl]methylidene}-1,3-dihydro-2H-indol-2-one], for which the IC50 is over 5000 nM in [1]; 500 to 5000 nM in [2]; under 50 nM in [3]; 50 to 500 nM in assay [4]; under 50 nM in assay [5]; under 50 nM in assay [7]. Moreover, the IC50 in assay [8] is 500 to 5000 nM; in [9] it was under 50 nM.
For the compound `CCN1CCC(Nc2ccc3c(c2)/C(=C(\c2cccc(C(F)(F)F)c2)c2nc(C)c[nH]2)C(=O)N3)CC1` [Entry 115, (3Z)-3-[(3-trifluoromethylphenyl)(4-methyl-1H-imidazol-2-yl)methylidene]-5-[(1-ethylpiperidin-4-yl)amino]-1,3-dihydro-2H-indol-2-one], the IC50 in [1] is 500 to 5000 nM; in [2], 500 to 5000 nM; in assay [3] it was 50 to 500 nM; in assay [4], under 50 nM; in assay [5], under 50 nM; in assay [7], under 50 nM. For the same compound, the IC50 in assay [8] lay within 500 to 5000 nM; in assay [9], 50 to 500 nM.
For `CCN1CCC(Nc2ccc3c(c2)/C(=C(\c2cc(F)cc(F)c2)c2ncc[nH]2)C(=O)N3)CC1` [Entry 73, (3Z)-3-[(3,5-difluorophenyl)(1H-imidazol-2-yl)methylidene]-5-[(1-ethylpiperidin-4-yl)amino]-1,3-dihydro-2H-indol-2-one], the IC50 in assay [1] is over 5000 nM; in [2] it was 500 to 5000 nM; in assay [3], under 50 nM; in [4], 50 to 500 nM; in [5], under 50 nM; in assay [7], under 50 nM. For the same compound, the IC50 was 50 to 500 nM in [8] and under 50 nM in assay [9].
